Test results reported in patent publication US8497383B2, “HIV protease inhibitors” (Merck Sharp & Dohme Corp., priority 2009, dated 2013).

Legend:
wild-type HIV-1 protease = molecular target: T1, wild-type HIV-1 protease (Human immunodeficiency virus type 1 group M subtype B, UniProt P04585); assay: Assay for inhibition of microbial expressed HIV protease; format: biochemical
T1 construct: the protease (which was expressed in Eschericia coli); made in house; host or cells: Escherichia coli
Protocol: Inhibition studies of the reaction of the protease (which was expressed in Eschericia coli) with a peptide substrate [Val-Ser-Gln-Asn-(betanapthyl)Ala-Pro-Ile-Val] (SEQ ID NO: 1). The inhibitor is first preincubated with the enzyme in assay buffer (50 mM sodium acetate, pH 5.5, 100 mM NaCl, and 0.1% BSA) for 30 minutes at room temperature. Substrate is added to 440 micromolar in a total volume of 80 microliters containing 5 picomolar HIV-1 protease, and the reaction is incubated for 1 hour at 30° C. The reaction is quenched by addition of 120 microliters of 10% phosphoric acid, and product formation is determined after separation of product and substrate on a Vydac C18 column connected to an Alliance high performance liquid chromatography system (Waters Corporation). The extent of inhibition of the reaction is determined from the peak area of the products.

[1] = tested on: acute HIV infection of T-lymphoid cells (HIV-1 replication); assay: Assay for inhibition of HIV replication (Spread Assay); format: cell-based; conditions: Human immunodeficiency virus 1, T-lymphoid, 10% FBS
Protocol: Assays for the inhibition of acute HIV infection of T-lymphoid cells were conducted in accordance with Vacca, J. P. et al., Proc. Natl. Acad. Sci. USA 1994, 91: 4096.

## COC(=O)N[C@H](C(=O)NCCC[C@@H]1CNC[C@H]1N(CCC(C)C)S(=O)(=O)c1ccc(N)cc1)C(c1ccccc1)c1ccccc1 (relative stereo) [Example 12, N-{3-[(3R*,4S*)-4-{[(4-aminophenyl)sulfonyl](3-methylbutyl)amino}pyrrolidin-3-yl]propyl}-Nα-(methoxycarbonyl)-β-phenyl-L-phenylalaninamide]
wild-type HIV-1 protease
  IC50: 0.05 nM
[1]
  IC95: 324 nM

## COC(=O)N[C@H](C(=O)NCCN[C@@H]1CNC[C@H]1N(CCC(C)C)S(=O)(=O)c1ccc(N)cc1)C(c1ccccc1)c1ccccc1 [Example 1, N-(2-{[(3R,4R)-4-{[(4-aminophenyl)sulfonyl](3-methylbutyl)amino}pyrrolidin-3-yl]amino}ethyl)-Nα-(methoxycarbonyl)-β-phenyl-L-phenylalaninamide]
wild-type HIV-1 protease
  IC50: 0.7 nM
[1]
  IC95: 495 nM

## COC(=O)N[C@H](C(=O)N[C@@H](C)CN[C@@H]1CNC[C@H]1N(CCC(C)C)S(=O)(=O)c1ccc(N)cc1)C(c1ccccc1)c1ccccc1 [Example 2, N-[(2S)-1-{[(3R,4R)-4-{[(4-aminophenyl)sulfonyl](3-methylbutyl)amino}pyrrolidin-3-yl]amino}propan-2-yl]-Nα-(methoxycarbonyl)-β-phenyl-L-phenylalaninamide]
wild-type HIV-1 protease
  IC50: 0.055 nM
[1]
  IC95: 423 nM

## CC[C@@H](CN[C@@H]1CNC[C@H]1N(CCC(C)C)S(=O)(=O)c1ccc(N)cc1)NC(=O)[C@@H](NC(=O)OC)C(c1ccccc1)c1ccccc1 [Example 3, N-[(2S)-1-{[(3R,4R)-4-{[(4-aminophenyl)sulfonyl](3-methylbutyl)amino}pyrrolidin-3-yl]amino}butan-2-yl]-Nα-(methoxycarbonyl)-β-phenyl-L-phenylalaninamide]
wild-type HIV-1 protease
  IC50: 0.22 nM
[1]
  IC95: 472 nM

## CCCCC(CN[C@@H]1CNC[C@H]1N(CCC(C)C)S(=O)(=O)c1ccc(N)cc1)NC(=O)[C@@H](NC(=O)OC)C(c1ccccc1)c1ccccc1 (stereo partly drawn) [Example 4, N-(1-{[(3R,4R)-4-{[(4-aminophenyl)sulfonyl](3-methylbutyl)amino}pyrrolidin-3-yl]amino}hexan-2-yl)-Nα-(methoxycarbonyl)-β-phenyl-L-phenylalaninamide]
wild-type HIV-1 protease
  IC50: 3.6 nM
[1]
  IC95: 399 nM

## COC(=O)N[C@H](C(=O)N[C@H](CN[C@@H]1CNC[C@H]1N(CCC(C)C)S(=O)(=O)c1ccc(N)cc1)CC(C)C)C(c1ccccc1)c1ccccc1 [Example 5, N-[(2S)-1-{[(3R,4R)-4-{[(4-aminophenyl)sulfonyl](3-methylbutyl)amino}pyrrolidin-3-yl]amino}-4-methylpentan-2-yl]-Nα-(methoxycarbonyl)-β-phenyl-L-phenylalaninamide]
wild-type HIV-1 protease
  IC50: 3.2 nM
[1]
  IC95: 405 nM

## COC(=O)N[C@H](C(=O)NC(C)(C)CN[C@@H]1CNC[C@H]1N(CCC(C)C)S(=O)(=O)c1ccc(N)cc1)C(c1ccccc1)c1ccccc1 [Example 6, N-(1-{[(3R,4R)-4-{[(4-aminophenyl)sulfonyl](3-methylbutyl)amino}pyrrolidin-3-yl]amino}-2-methylpropan-2-yl)-Nα-(methoxycarbonyl)-β-phenyl-L-phenylalaninamide]
wild-type HIV-1 protease
  IC50: 0.05 nM
[1]
  IC95: 291 nM

## COC(=O)N[C@H](C(=O)NCCN[C@@H]1CNC[C@H]1N(CC(C)C)S(=O)(=O)c1ccc(N)cc1)C(c1ccccc1)c1ccccc1 [Example 7, N-(2-{[(3R,4R)-4-{[(4-aminophenyl)sulfonyl](2-methylpropyl)amino}pyrrolidin-3-yl]amino}ethyl)-Nα-(methoxycarbonyl)-β-phenyl-L-phenylalaninamide]
wild-type HIV-1 protease
  IC50: 3.7 nM
[1]
  IC95: 500 nM

## COC(=O)N[C@H](C(=O)NCCN[C@@H]1CNC[C@H]1N(C(C)C)S(=O)(=O)c1ccc(N)cc1)C(c1ccccc1)c1ccccc1 [Example 8, N-(2-{[(3R,4R)-4-{[(4-aminophenyl)sulfonyl](isopropyl)amino}pyrrolidin-3-yl]amino}ethyl)-Nα-(methoxycarbonyl)-β-phenyl-L-phenylalaninamide]
wild-type HIV-1 protease
  IC50: 22 nM
[1]; @ 500 nM, read-out: Spread - inhibition at a fixed concentration
  inhibition at 0.5 µM: 26%

## COC(=O)N[C@H](C(=O)NCCN[C@@H]1CNC[C@H]1N(Cc1ccccc1)S(=O)(=O)c1ccc(N)cc1)C(c1ccccc1)c1ccccc1 [Example 9, N-(2-{[(3R,4R)-4-{[(4-aminophenyl)sulfonyl](benzyl)amino}pyrrolidin-3-yl]amino}ethyl)-Nα-(methoxycarbonyl)-β-phenyl-L-phenylalaninamide]
wild-type HIV-1 protease
  IC50: 8.6 nM
[1]
  IC95: 505 nM

## COC(=O)N[C@H](C(=O)NCCN(C)[C@@H]1CNC[C@H]1N(CCC(C)C)S(=O)(=O)c1ccc(N)cc1)C(c1ccccc1)c1ccccc1 [Example 10, N-{2-[{(3R,4R)-4-[[(4-aminophenyl)sulfonyl](3-methylbutyl)amino]pyrrolidin-3-yl}(methyl)amino]ethyl}-N-alpha-(methoxycarbonyl)-beta-phenyl-L-phenylalaninamide]
wild-type HIV-1 protease
  IC50: 15 nM
[1]
  IC95: 217 nM

## COC(=O)N[C@H](C(=O)NCCN[C@@H]1CNC[C@H]1N(CCC(C)C)S(=O)(=O)c1ccc(CO)cc1)C(c1ccccc1)c1ccccc1 [Example 11, N-[2-({(3R,4R)-4-[{[4-(hydroxymethyl)phenyl]sulfonyl}(3-methylbutyl)amino]pyrrolidin-3-yl}amino)ethyl]-Nalpha-(methoxycarbonyl)-beta-phenyl-L-phenylalaninamide]
wild-type HIV-1 protease
  IC50: 0.29 nM
[1]
  IC95: 328 nM
